Assay results: patent EP1342719B1, “Benzodiazepine derivatives useful as CCK-Receptor Antagonists” (Ferring BV, priority 1992, dated 1993)
Where two headings read alike, the source gives them in different places.

Experiments:
CCK-B receptors = target: T1, CCK-B receptors (Rattus norvegicus, UniProt P30553); assay: Measurement of binding affinity for CCK-B receptors ([125I]BH-CCK-8 displacement, brain membrane preparation); design: species or system SD rats; details: for A/B Ratio: selectivity, ratio IC50 (CCK-A)/IC50 (CCK-B)
T1 construct: the whole brain was immediately excised from each of the rats and homogenized; from tissue; host or cells: SD rat whole-brain membrane preparation
T1 sequence (P30553 whole entry): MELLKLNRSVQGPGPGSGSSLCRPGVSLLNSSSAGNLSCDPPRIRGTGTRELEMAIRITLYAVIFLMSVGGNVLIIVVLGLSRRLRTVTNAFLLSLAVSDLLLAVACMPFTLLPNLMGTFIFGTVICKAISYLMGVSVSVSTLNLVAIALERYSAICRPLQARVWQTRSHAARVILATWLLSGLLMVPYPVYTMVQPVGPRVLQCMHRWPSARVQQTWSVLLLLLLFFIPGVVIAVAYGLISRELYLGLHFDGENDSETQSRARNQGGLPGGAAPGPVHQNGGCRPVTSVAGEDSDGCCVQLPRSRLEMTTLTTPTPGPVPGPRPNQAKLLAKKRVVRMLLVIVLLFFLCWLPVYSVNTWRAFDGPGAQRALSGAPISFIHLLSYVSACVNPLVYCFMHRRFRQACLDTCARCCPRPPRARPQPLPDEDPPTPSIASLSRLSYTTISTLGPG
Description: About 100 SD rats were decapitated without anaesthesia, the whole brain was immediately excised from each of the rats and homogenized in 10-fold volume of 0.32 M aqueous solution of sucrose by the use of a Teflon-coated homogenizer, the homogenate thus obtained was centrifuged for ten minutes at 900 g by the use of a cooled centrifuge, and the supernatant was further centrifuged for 15 minutes at 11500 g. The precipitate thus obtained was dispersed in 50 mM Tris-HCl buffer (pH 7.4) containing 0.08% Triton X-100, this suspension was allowed to stand for 30 minutes and again centrifuged for 15 minutes at 11500 g, the precipitate thus obtained was washed twice with 5 mM Tris-HCl buffer and twice with 50 mM Tris-HCl buffer in that order with centrifugal separation, the washed precipitate was suspended in 50 mM Tris-HCl buffer, and the suspension thus obtained was stored at -80°C until the membrane preparation was required.
The membrane preparations were warmed to room temperature, diluted with 10 mM HEPES buffer (containing 130 mM NaCl, 5 mM MgCl2, 1 mM EGTA and 0.25 mg/ml bacitracin; pH 6.5) and incubated at 25°C for 120 minutes in the presence of [^125I]BH-CCK-8 and the test compound, then separated by suction filtration. Non-specific binding was determined in the presence of 1 µM CCK-8. The amount of labelled ligand bound to the receptor was measured by the use of a γ-counter; IC50 values were determined, being that concentration of test compound required to inhibit specific binding by 50%.

CCK-A receptors = target: T2, CCK-A receptors (Rattus norvegicus, UniProt P30551); assay: Measurement of binding affinity for CCK-A receptors ([3H]L-364,718 displacement, pancreas membrane preparation); design: species or system SD rat
T2 construct: The pancreas of an SD rat was homogenized; from tissue; host or cells: SD rat pancreas membrane preparation
T2 sequence (P30551 1-444): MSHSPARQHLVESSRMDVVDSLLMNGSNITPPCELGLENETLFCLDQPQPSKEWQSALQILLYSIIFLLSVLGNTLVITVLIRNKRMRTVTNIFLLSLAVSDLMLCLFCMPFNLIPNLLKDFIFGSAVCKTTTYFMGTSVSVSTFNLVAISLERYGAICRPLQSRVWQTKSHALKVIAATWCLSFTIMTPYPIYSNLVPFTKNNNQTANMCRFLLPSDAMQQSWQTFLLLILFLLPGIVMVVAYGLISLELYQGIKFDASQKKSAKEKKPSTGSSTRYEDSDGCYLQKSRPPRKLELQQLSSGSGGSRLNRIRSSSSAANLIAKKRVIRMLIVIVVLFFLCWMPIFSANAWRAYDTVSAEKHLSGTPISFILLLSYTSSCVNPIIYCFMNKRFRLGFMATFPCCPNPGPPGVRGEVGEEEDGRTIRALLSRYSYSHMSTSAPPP
Description: The pancreas of an SD rat was homogenized in a 20-fold volume of 50 mM Tris-HCl buffer (pH 7.7) by the use of a Polytrone-type homogenizer, the homogenate was twice centrifuged for 10 minutes at 50000 g by the use of an ultra-centrifuge, the precipitate thus obtained was suspended in a 40-fold volume of 50 mM Tris-HCl buffer (containing 0.2% BSA, 5 mM MgCl2, 0.1 mg/ml bacitracin and 5 mM DTT; pH 7.7), and the suspension was stored at -80°C until the membrane preparations were required.
The membrane preparations were then warmed to room temperature, diluted 1:10 with the buffer and incubated at 37°C for 30 minutes in the presence of [^3H]L-364,718 and the test compound then separated by suction filtration. Non-specific binding was determined in the presence of 1 µM L-364,718. The amount of labelled ligand bound to the receptor was measured by the use of a liquid scintillation counter; IC50 values were determined, being that concentration of test compound required to inhibit specific binding by 50%

[1] = system: pentagastrin-stimulated gastric acid secretion; assay: Inhibition of pentagastrin-stimulated gastric acid secretion in dog (Heidenhain pouch); type: in vivo, male beagle dogs; details: maximum inhibition of stimulated acid output, oral, pentagastrin 8 µg/kg/hr infusion, mean for 3 - 5 animals
Description: Assays were performed using male beagle dogs (7 - 12 kg) two months after surgical preparation of Heidenhain pouches following the conventional procedure. Each dog was used only once per week.
The animals were deprived of food with free access to water for 18 hr prior to the experiment. The gastric juice was collected from the gastric canula by gravity drainage every 15 min, and acid output was determined by automatic titration with 0.05 N NaOH to pH 7.0 (Comtite-7, Hiranuma, Tokyo, Japan). Drugs were administered orally 3 hr after the start of the pentagastrin (8 µg/kg/hr) infusion. The effect of each drug was calculated as the percentage inhibition of stimulated acid output. […] Each result is a mean for 3 - 5 animals.

[2] = rat whole brain membranes, [125I]BH-CCK-8, 25°C, 120 minutes, read-out: Receptor binding affinity IC50(nM) CCK-B
[3] = rat pancreas membranes, [3H]L-364,718, 37°C, 30 minutes, read-out: Receptor binding affinity IC50(nM) CCK-A

CN(C)c1cccc(NC(=O)NC2N=C(c3ccccc3)c3ccccc3N(CC(=O)C(C)(C)C)C2=O)c1 (racemic) [Example 41, N-((3RS)-1-tert-Butylcarbonylmethyl-2,3-dihydro-2-oxo-5-phenyl-1H-1,4-benzodiazepin-3-yl)-N'-(3-dimethylaminophenyl) urea]
IC50 (CCK-B receptors): 6.2 nM | A/B Ratio (CCK-B receptors): 1,100 | IC50 (CCK-A receptors): 6700 nM

Cc1cccc(NC(=O)N[C@@H]2N=C(c3ccccc3)c3ccccc3N(CC(=O)C(C)(C)C)C2=O)c1 [Example 26, N-((3R)-1-tert-Butylcarbonylmethyl-2,3-dihydro-2-oxo-5-phenyl-1H-1,4-benzodiazepin-3-yl)-N'-(3-methylphenyl) urea]
Inhibidon (dose) ([1]; 3 µmol/kg): 53% (3 µmol/kg)

CCC(C)(C)C(=O)CN1C(=O)C(NC(=O)Nc2cccc(C)c2)N=C(c2ccccc2)c2ccccc21 (racemic) [Example 36, N-((3RS)-1-tert-Amylcarbonylmethyl-2,3-dihydro-2-oxo-5-phenyl-1H-1,4-benzodiazepin-3-yl)-N'-(3-methylphenyl) urea]
IC50 (CCK-B receptors): 0.57 nM | A/B Ratio (CCK-B receptors): 1,300 | IC50 (CCK-A receptors): 720 nM

Cc1cccc(NC(=O)N[C@@H]2N=C(c3ccccc3)c3ccccc3N(C)C2=O)c1 [reference compound]
IC50 (CCK-B receptors; [2]): 29 nM | A/B Ratio (CCK-B receptors): 410 | IC50 (CCK-A receptors; [3]): 12000 nM | Inhibidon (dose) ([1]; 100 µmol/kg): 0% (100 µmol/kg)

CN(C)c1cccc(NC(=O)NC2N=C(c3ccccn3)c3ccccc3N(CC(=O)C(C)(C)C)C2=O)c1 (racemic) [Example 38, N-((3RS)-1-tert-Butylcarbonylmethyl-2,3-dihydro-2-oxo-5-(2-pyridyl)-1H-1,4-benzodiazepin-3-yl)-N'-(3-dimethylaminophenyl) urea]
Inhibidon (dose) ([1]; 3 µmol/kg): 100% (3 µmol/kg)

CC(C)(C)C(=O)CN1C(=O)[C@H](NC(=O)Nc2cccc(N)c2)N=C(c2ccccc2)c2ccccc21 [Example 66, N-((3R)-1-tert-Butylcarbonylmethyl-2,3-dihydro-2-oxo-5-phenyl-1H-1,4-benzodiazepin-3-yl)-N'-(3-aminophenyl) urea]
IC50 (CCK-B receptors; [2]): 0.5 nM | A/B Ratio (CCK-B receptors): 1,900 | IC50 (CCK-A receptors; [3]): 950 nM

CN(C)c1cccc(NC(=O)N[C@@H]2N=C(c3ccccc3)c3ccccc3N(CC(=O)C(C)(C)C)C2=O)c1 [Example 64, N-((3R)-1-tert-Butylcarbonylmethyl-2,3-dihydro-2-oxo-5-phenyl-1H-1,4-benzodiazepin-3-yl)-N'-(3-dimethylaminophenyl) urea]
Inhibidon (dose) ([1]; 3 µmol/kg): 100% (3 µmol/kg)

CC(C)(C)C(=O)CN1C(=O)C(NC(=O)Nc2cccc(C(=O)O)c2)N=C(c2ccccn2)c2ccccc21 (racemic) [Example 39, N-((3RS)-1-tert-Butylcarbonylmethyl-2,3-dihydro-2-oxo-5-(2-pyridyl)-1H-1,4-benzodiazepin-3-yl)-N'-(3-carboxyphenyl) urea]
IC50 (CCK-B receptors): 0.1 nM | A/B Ratio (CCK-B receptors): 2,400 | IC50 (CCK-A receptors): 240 nM

CC(C)(C)C(=O)CN1C(=O)C(NC(=O)Nc2cccc([N+](=O)[O-])c2)N=C(c2ccccc2)c2ccccc21 (racemic) [Example 45, N-((3RS)-1-tert-Butylcarbonylmethyl-2,3-dihydro-2-oxo-5-phenyl-1H-1,4-benzodiazepin-3-yl)-N'-(3-nitrophenyl) urea]
A/B Ratio (CCK-B receptors): 3,700 | IC50 (CCK-A receptors): 590 nM

CNc1cccc(NC(=O)N[C@@H]2N=C(c3ccccc3)c3ccccc3N(CC(=O)C(C)(C)C)C2=O)c1 [Example 56, N-((3R)-1-tert-Butylcarbonylmethyl-2,3-dihydro-2-oxo-5-phenyl-1H-1,4-benzodiazepin-3-yl)-N'-(3-methylaminophenyl) urea]
IC50 (CCK-B receptors; [2]): 0.11 nM | A/B Ratio (CCK-B receptors): 1,100 | IC50 (CCK-A receptors; [3]): 120 nM

Cc1cccc(NC(=O)NC2N=C(c3ccccn3)c3ccccc3N(CC(=O)C(C)(C)C)C2=O)c1 (racemic) [Example 27, N-((3RS)-1-tert-Butylcarbonylmethyl-2,3-dihydro-2-oxo-5-(2-pyridyl)-1H-1,4-benzodiazepin-3-yl)-N'-(3-methylphenyl) urea]
Inhibidon (dose) ([1]; 3 µmol/kg): 66% (3 µmol/kg)

CCC(C)(C)C(=O)CN1C(=O)C(NC(=O)Nc2cccc(C(=O)O)c2)N=C(c2ccccc2)c2ccccc21 (racemic) [Example 37, N-((3RS)-1-tert-Amylcarbonylmethyl-2,3-dihydro-2-oxo-5-phenyl-1H-1,4-benzodiazepin-3-yl)-N'-(3-carboxyphenyl) urea]
IC50 (CCK-B receptors): 1.1 nM | A/B Ratio (CCK-B receptors): 5,100 | IC50 (CCK-A receptors): 5600 nM
